Patent US11680060B2, “Bicycloheptane pyrrolidine orexin receptor agonists” (Merck Sharp & Dohme LLC, priority 2020, dated 2023)
Like-named read-outs stand apart in the source and are kept apart here.

Biological target: human OX2R (Homo sapiens (Human), UniProt O43614)
Assay: IPOne (IP-1) assay in CHO cells expressing human OX2R
Type: cell-based
Conditions: for Emax: CHO; for IC50: CHO cells expressing human OX2R, IP-One detection, 2 hours incubation, EC50 = inflection point of four parameter logistic fit, read-out: hOX2R_IP_IC50
Description: The utility of the compounds in accordance with the present invention as orexin receptor OX1R and/or OX2R agonists may be readily determined without undue experimentation by methodology well known in the art. Both the OX1R and/or OX2R G-coupled protein receptors (GPCRs) couple through the Gαq signaling pathway, which ultimately promotes calcium mobilization via inositol triphosphate (IP3) production. The half-life of IP-3 is relatively short, being rapidly metabolized to inositol monophosphate (IP-1), which can be readily detected using a commercially available assay kit (IP-One; Cisbio; cat #621PAPEC) coupled with a cell line expressing the target receptor(s) of interest. The utility of the compounds in accordance with the present invention as orexin receptor OX1R and/or OX2R agonists may be determined utilizing this assay.
In a typical experiment, the OX1 and OX2 receptor agonist activity is determined in accordance with the following general experimental method. Chinese hamster ovary (CHO) cells expressing human OX1R and/or the human OX2R were grown in Iscove's modified DMEM containing glutaMAX™, 1% G418, 100 U/mL penicillin, 100 μg/mL streptomycin and 10% heat-inactivated qualified fetal bovine serum (FBS). The OX2R cells were seeded at 10,000 cells/well/50 μL and the OX1R cells were seeded at 20,000 cells/well/50 μL into 384-well white tissue culture plates (Greiner; cat #781080). All cell/media reagents were from GIBCO-Invitrogen Corp. The seeded cell plate(s) were incubated at 37° C. with 5% CO2 and 85% humidity for 20-24 hours. On the day of the assay, assay-ready compound plates were prepared using an acoustic liquid handler (ECHO; Labcyte), which dispensed sufficient volume of test compound stock (10 mM in DMSO) or 100% DMSO to prepare 10 point, ½-log dilutions in a final volume of 202.5 nL/well in all test wells of a 384-well diamond plate (Labcyte). Following completion of assay-ready plates, importantly, the next three steps were performed with minimal delay: 1) 20 μl of 1× stimulation buffer was added to the compound plate using a Multidrop Combi (small cassette, Thermo Fisher Scientific cat #24073290); 2) culture medium was removed from the cell plate using the Bluewasher plate washer (gentle spin; BlueCatBio); 3) 14 μl of compound/stimulation buffer mixture was added to the cell plate using a Bravo liquid handler (Agilent) prior to incubating cell plates at 37° C. with 5% CO2 and 85% humidity for 1 or 2 hours (OX1R and OX2R, respectively). During this incubation, IP-one detection reagents were prepared (38:1:1 lysis buffer:D2:AB-cryptate reagents). Six μL of mixed detection reagents were added to the cell plate using a Multidrop Combi (small cassette, Thermo Fisher Scientific cat #24073290) and incubated 60 minutes at room temperature in the dark. Fluorescence signal was detected using an Envision plate reader (Perkin Elmer) [LANCE/DELFIA Dual Enh (Em: APC 665; Ex: Cy5 620)].
For each compound, data were fit to a four parameter logistic fit (ActivityBase software) and the EC50 was reported as the inflection point of the resulting curve. Percent effect for each test compound was determined as the percentage of sample raw value/mean max effect, where the mean max effect was derived from the mean raw value of 32 control wells per assay plate (using Orexin A (cat #003-30) at 1 μM for human OX1R and a reference compound at 1 uM with 100% activity previously established by comparison to Orexin A for human OX2R). The intrinsic orexin receptor agonist activity of a compound which may be used in the present invention may be determined by these assays.

[1] = percentage of mean max effect of a reference compound at 1 uM (100% activity by comparison to Orexin A), human OX2R, read-out: Emax (%)

Chain of human OX2R (O43614 whole entry): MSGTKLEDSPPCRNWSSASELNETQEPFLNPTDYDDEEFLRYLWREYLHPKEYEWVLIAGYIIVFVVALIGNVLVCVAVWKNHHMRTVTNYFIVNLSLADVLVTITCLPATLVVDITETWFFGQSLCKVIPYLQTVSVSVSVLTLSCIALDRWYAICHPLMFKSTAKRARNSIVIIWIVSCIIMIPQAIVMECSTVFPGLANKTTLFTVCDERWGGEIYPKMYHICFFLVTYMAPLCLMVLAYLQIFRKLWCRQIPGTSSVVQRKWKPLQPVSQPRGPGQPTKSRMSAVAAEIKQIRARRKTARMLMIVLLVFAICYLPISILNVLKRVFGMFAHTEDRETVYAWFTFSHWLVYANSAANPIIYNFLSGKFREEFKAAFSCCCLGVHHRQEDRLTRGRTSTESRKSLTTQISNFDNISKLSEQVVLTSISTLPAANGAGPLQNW

Row | Structure (SMILES) | Emax [1] [%] | IC50 [nM] | other results
1 | C[C@@H]1C[C@H](NS(C)(=O)=O)[C@H](CO[C@H]2CC[C@@]3(c4ncc(F)cn4)C[C@H]3C2)N1C(=O)OCCC(F)F [Example 52, 3,3-difluoropropyl (2R,3S,5R)-2-((((1S,3S,6R)-6-(5-fluoropyrimidin-2-yl)bicyclo[4.1.0]heptan-3-yl)oxy)methyl)-5-methyl-3-(methylsulfonamido)pyrrolidine-1-carboxylate] | 102 |  | 
2 | C[C@@H]1C[C@H](NS(C)(=O)=O)[C@H](CO[C@H]2CC[C@@]3(c4ncc(F)cn4)C[C@H]3C2)N1C(=O)OC[C@H]1C[C@H]1F [Example 51, ((1R,2R)-2-fluorocyclopropyl)methyl (2R,3S,5R)-2-((((1S,3S,6R)-6-(5-fluoropyrimidin-2-yl)bicyclo[4.1.0]heptan-3-yl)oxy)methyl)-5-methyl-3-(methylsulfonamido)pyrrolidine-1-carboxylate] | 102 |  | 
3 | COC(=O)N1[C@H](C)C[C@H](NS(=O)(=O)C(F)F)[C@@H]1CO[C@H]1CC[C@@]2(c3ncc(F)cn3)C[C@H]2C1 [Example 48, methyl (2R,3S,5R)-3-((difluoromethyl)sulfonamido)-2-((((1S,3S,6R)-6-(5-fluoropyrimidin-2-yl)bicyclo[4.1.0]heptan-3-yl)oxy)methyl)-5-methylpyrrolidine-1-carboxylate] | 101 |  | 
4 | COC(=O)N1[C@H](C)C[C@H](NS(=O)(=O)Cc2ccccc2)[C@@H]1CO[C@H]1CC[C@@]2(c3ncc(F)cn3)C[C@H]2C1 [Example 34, methyl (2R,3S,5R)-2-((((1S,3S,6R)-6-(5-fluoropyrimidin-2-yl)bicyclo[4.1.0]heptan-3-yl)oxy)methyl)-5-methyl-3-((phenylmethyl)sulfonamido)pyrrolidine-1-carboxylate] | 96.5 |  | 
5 | C[C@@H]1C[C@H](NS(C)(=O)=O)[C@H](CO[C@H]2CC[C@@]3(c4ncc(F)cn4)C[C@H]3C2)N1C(=O)OCC1CC(F)C1 (stereo partly drawn) [Example 49, (3-fluorocyclobutyl)methyl (2R,3S,5R)-2-((((1S,3S,6R)-6-(5-fluoropyrimidin-2-yl)bicyclo[4.1.0]heptan-3-yl)oxy)methyl)-5-methyl-3-(methylsulfonamido)pyrrolidine-1-carboxylate] |  |  | Emax: 103%
6 | COC(=O)N1[C@H](C)C[C@H](NS(=O)(=O)CC(F)(F)F)[C@@H]1CO[C@H]1CC[C@@]2(c3ncc(F)cn3)C[C@H]2C1 [Example 32, methyl (2R,3S,5R)-2-((((1S,3S,6R)-6-(5-fluoropyrimidin-2-yl)bicyclo[4.1.0]heptan-3-yl)oxy)methyl)-5-methyl-3-((2,2,2-trifluoroethyl)sulfonamido)pyrrolidine-1-carboxylate] | 103 |  | 
7 | COC(=O)N1[C@H](C)C[C@H](NS(=O)(=O)N(C)C)[C@@H]1COC1CCC2(c3cnccn3)CC2C1 (single isomer, unassigned) [Example 14] |  |  | Emax (%) (percentage of mean max effect of a reference compound at 1 uM (100% activity by comparison to Orexin A), human OX2R): 93.5%
8 | COC(=O)N1[C@H](C)C[C@H](NS(=O)(=O)N2CCC2)[C@@H]1CO[C@@H]1CC[C@]2(c3ncc(F)cn3)C[C@@H]2C1 [Example 43, methyl (2R,3S,5R)-3-(azetidine-1-sulfonamido)-2-((((1R,3R,6S)-6-(5-fluoropyrimidin-2-yl)bicyclo[4.1.0]heptan-3-yl)oxy)methyl)-5-methylpyrrolidine-1-carboxylate] | 97.8 |  | 
9 | CC(C)OC(=O)N1[C@H](C)C[C@H](NS(C)(=O)=O)[C@@H]1COC1CCC2(c3ncc(F)cn3)CC2C1 (mixture of isomers) [Example 26, isopropyl (2R,3S,5R)-2-(((6-(5-fluoropyrimidin-2-yl)bicyclo[4.1.0]heptan-3-yl)oxy)methyl)-5-methyl-3-(methylsulfonamido)pyrrolidine-1-carboxylate] | 101 | 11.4 | 

Now from value to molecule, other results behind:

Row | Emax [1] [%] | IC50 [nM] | Structure (SMILES) | other results
10 | 101 | 4.6 | COC(=O)N1[C@H](C)C[C@H](NS(=O)(=O)CF)[C@@H]1CO[C@H]1CC[C@@]2(c3ncc(Cl)c(OC)n3)C[C@H]2C1 (single isomer, unassigned) [Example 84] | 
11 | 99.7 |  | COC(=O)N1[C@@H]2COC[C@@H]2C(NS(C)(=O)=O)[C@@H]1COC1CCC2(c3ncc(F)cn3)CC2C1 (mixture of isomers) [Example 134, Methyl (2R,3aS,6aS)-2-(((6-(5-fluoropyrimidin-2-yl)bicyclo[4.1.0]heptan-3-yl)oxy)methyl)-3-(methylsulfonamido)hexahydro-1H-furo[3,4-b]pyrrole-1-carboxylate] | 
12 | 100 | 1 | CC(C)OC(=O)N1[C@H](C)C[C@H](NS(=O)(=O)CF)[C@@H]1CO[C@H]1CC[C@@]2(c3ncc(F)cn3)C[C@H]2C1 (single isomer, unassigned) [Example 100] | 
13 | 104 |  | CCS(=O)(=O)N[C@H]1CCCN(C(=O)OC(C)C)[C@H]1COC1CC[C@@]2(c3ncc(F)cn3)CC2C1 (stereo partly drawn) [Example 126, isopropyl (2R,3S)-3-(ethylsulfonamido)-2-(((6-(5-fluoropyrimidin-2-yl)bicyclo[4.1.0]heptan-3-yl)oxy)methyl)piperidine-1-carboxylate] | 
14 | 101 |  | CCS(=O)(=O)N[C@H]1[C@H]2CCC[C@H]2N(C(=O)OC)[C@H]1COC1CCC2(c3ncc(F)cn3)CC2C1 (stereo partly drawn) [Example 129, methyl (2R,3S,3aS,6aR)-3-(ethylsulfonamido)-2-(((6-(5-fluoropyrimidin-2-yl)bicyclo[4.1.0]heptan-3-yl)oxy)methyl)hexahydrocyclopenta[b]pyrrole-1(2H)-carboxylate] | 
15 | 99.7 | 100 | COC(=O)N1[C@H](C)C[C@H](NS(C)(=O)=O)[C@@H]1CO[C@@H]1CC[C@]2(c3ncccn3)C[C@@H]2C1 (single isomer, unassigned) [Example 180] | 
16 | 101 | 1.7 | COC(=O)N1[C@H](C(F)F)C[C@H](NS(C)(=O)=O)[C@@H]1CO[C@H]1CC[C@@]2(c3ncc(F)cn3)C[C@H]2C1 (single isomer, unassigned) [Example 127] | 
17 | 104 |  | CC(OC(=O)N1[C@H](C)C[C@H](NS(C)(=O)=O)[C@@H]1CO[C@H]1CC[C@@]2(c3ncc(F)cn3)C[C@H]2C1)C(F)F (stereo partly drawn) [Example 63, 1,1-Difluoropropan-2-yl (2R,3S,5R)-2-((((1S,3S,6R)-6-(5-fluoropyrimidin-2-yl)bicyclo[4.1.0]heptan-3-yl)oxy)methyl)-5-methyl-3-(methylsulfonamido)pyrrolidine-1-carboxylate] | 
18 | 105 |  | CC(C)OC(=O)N1[C@H](C)C[C@H](NS(=O)(=O)CF)[C@@H]1COC1CCC2(c3ncc(Br)cn3)CC2C1 (stereo partly drawn) [Example 108, isopropyl (2R,3S,5R)-2-(((6-(5-bromopyrimidin-2-yl)bicyclo[4.1.0]heptan-3-yl)oxy)methyl)-3-((fluoromethyl)sulfonamido)-5-methylpyrrolidine-1-carboxylate] | 
19 | 97.1 |  | COC(=O)N1[C@H](C)C[C@H](NS(=O)(=O)CF)[C@@H]1COC1CCC2(c3ncc(F)c(OC)n3)CC2C1 (stereo partly drawn) [Example 85, methyl (2R,3S,5R)-2-(((6-(5-fluoro-4-methoxypyrimidin-2-yl)bicyclo[4.1.0]heptan-3-yl)oxy)methyl)-3-((fluoromethyl)sulfonamido)-5-methylpyrrolidine-1-carboxylate] | 
20 | 101 | 50.7 | COC(=O)N1[C@H](C)C[C@H](NS(C)(=O)=O)[C@@H]1COC1CC[C@@]2(c3nccs3)C[C@H]2C1 (single isomer, unassigned) [Example 146] | 
21 | 102 | 0.8 | CC(C)OC(=O)N1[C@H](C)C[C@H](NS(=O)(=O)N(C)C)[C@@H]1CO[C@H]1CC[C@@]2(c3ncc(F)cn3)C[C@H]2C1 (single isomer, unassigned) [Example 161] | 
